Measurements from patent publication US20250206779A1, “ANGIOTENSIN-(1-9) ANALOGUE BASED ON D AMINO ACIDS, PHARMACEUTICAL COMPOSITIONS AND USES THEREOF” (UNIVERSIDAD DE CHILE, priority 2021, published 2025).
Entries after “also recorded” stand apart in the source; their conditions may differ. Where a SMILES comes first, the peptide text is derived from it. [ ]: non-standard residue; d: D form.

Assays:
[1] = tested on: isolated hearts from adult male Sprague-Dawley rats; experiment: Infarct size in isolated hearts subjected to ischemia/reperfusion (Langendorff, TTC staining); design: species or system rat; conditions: 50 nM peptide in reperfusion, 30 min global ischemia, ex vivo
Procedure: The cardioprotective effects of retro-inverse angiotensin-(1-9) were also investigated in isolated hearts from adult male Sprague-Dawley rats (250-300 g) subjected to ischemia/reperfusion (I/R) using a Langendorff procedure. Rats were anesthetized with pentobarbital [80 mg/kg intraperitoneally (i.p.)] and heparin 100 U/kg was injected into the right atria. Hearts were rapidly harvested and perfused through the aorta with Krebs-Henseleit solution containing NaCl 128.3 mM, KCl 4.7 mM, CaCl2 1.35 mM, MgSO4 1.1 mM, NaHCO3 20.2 mM, NaH2PO4 0.4 mM and glucose 11.1 mM, pH 7.4 (equilibrated with a gas mixture of 95% O2 and 5% CO2 at 37° C.), using a peristaltic pump (Gilson Miniplus 3, France). A latex balloon connected to a pressure transducer was placed through the left atrium and mitral valve into the left ventricle. The balloon was filled with saline to determine isovolumetric intraventricular pressure. Perfusion flow was 10-14 mL/min. Hearts were placed in a heated chamber and paced at 240-300 beats/min with platinum electrodes, using a Grass stimulator (pulses of 5V, 1 ms). […] The infarct size was determined using 2,3,5-triphenyltetrazolium chloride (TTC) staining. […]

[2] = tested on: spontaneously hypertensive rats (SHR); experiment: Cardiac-resident macrophage phenotype M1/M2 in SHR, flow cytometry; type: in vivo, rat; conditions: SHR, 1,200 ng/kg/min, 14 days
Procedure: Experimental animal model. All procedures were performed in accordance with the Guide for the Care and Use of Laboratory Animals published by the U.S. National Institutes of Health (NIH Publication 85 23, 1985) and approved by our Institutional Bioethics Committee. The animals were housed under the continuous professional monitoring of the Medical Veterinary staff in the animal facility of the Pontificia Universidad Católica de Chile, under the following conditions: 12-h light-dark cycle; 21° C. ambient temperature; 50% humidity; adequate ventilation; noise-free environment; and food and water ad libitum. Male spontaneously hypertensive rats (SHR, age 12 weeks) and normotensive Wistar Kyoto rats (WKY, 12 weeks age) were used. […] Systolic blood pressure (SBP), diastolic blood pressure (DBP) and body weight (BW) were measured at the end of the treatment period and the animals were then sacrificed. […]

[3] = tested on: spontaneously hypertensive rats (SHR); experiment: β-MHC protein level in left ventricle of SHR (cardiac hypertrophy); type: in vivo, rat; conditions: SHR, 1,200 ng/kg/min, 14 days, left ventricle western blot
Procedure: Experimental animal model. All procedures were performed in accordance with the Guide for the Care and Use of Laboratory Animals published by the U.S. National Institutes of Health (NIH Publication 85 23, 1985) and approved by our Institutional Bioethics Committee. The animals were housed under the continuous professional monitoring of the Medical Veterinary staff in the animal facility of the Pontificia Universidad Católica de Chile, under the following conditions: 12-h light-dark cycle; 21° C. ambient temperature; 50% humidity; adequate ventilation; noise-free environment; and food and water ad libitum. Male spontaneously hypertensive rats (SHR, age 12 weeks) and normotensive Wistar Kyoto rats (WKY, 12 weeks age) were used. […] Systolic blood pressure (SBP), diastolic blood pressure (DBP) and body weight (BW) were measured at the end of the treatment period and the animals were then sacrificed.
Measurement of β-MHC protein level to assess cardiac hypertrophy. β-MHC protein levels were determined by Western blotting. […] Digital images obtained from the photographic films were analyzed by densitometry using Image J software (NIH, USA). […]

CC[C@@H](C)[C@@H](NC(=O)[C@@H](Cc1c[nH]cn1)NC(=O)[C@H]1CCCN1C(=O)[C@@H](Cc1ccccc1)NC(=O)[C@H](N)Cc1c[nH]cn1)C(=O)N[C@H](Cc1ccc(O)cc1)C(=O)N[C@@H](C(=O)N[C@H](CCCNC(=N)N)C(=O)N[C@H](CC(=O)O)C(=O)O)C(C)C [retro-inverse angiotensin-(1-9), NH2-^DH^DF^DP^DH^DI^DY^DV^DR^DD-COOH] (H-[dH][dF][dP][dH][dI][dY][dV][dR][dD]-OH)
decrease of infarct size [1]: around 70% | macrophages M1 in cardiac tissues [2]: reversed the increase; also recorded: more marked decrease in macrophages M1 than angiotensin-(1-9) | macrophages M2 in cardiac tissues [2]: increases the macrophages M2 | increase in β-MHC induced by hypertension [3]: reversed the increase
